Patent US20210269661A1, “INK COMPOSITIONS” (HEWLETT-PACKARD DEVELOPMENT COMPANY, L.P., priority 2018, published 2021)

Test: Partition coefficient of organic co-solvents (log P 1-octanol/water)
Conditions: not given
From the text: The hydrophilicity of the organic co-solvent can be quantified as a partition coefficient. As used herein, “partition coefficient” refers to a concentration ratio of a compound in an equilibrium mixture of two immiscible phases, and can be a measure of the difference in solubility of the compound in the two immiscible phases. Formula I provides an equation of quantifying the hydrophilicity of the organic co-solvents of the present disclosure, as follows: […]

Row | Partition Coefficient (log P1-octanol/water) | Structure (SMILES)
1 | −0.40 | CC1(C)NC(=O)NC1=O [5,5-dimethyl hydantoin]
2 | 2.34 | CCCCCCCCO [Ink 1-octanol, 1-octanol]
3 | −0.40 | O=C1CCCN1CCO [N-(2-hydroxyethyl)-2-pyrrolidinone]
4 | −1.39 | CC1(C)C(=O)N(CCO)C(=O)N1CCO [di-(2-hydroxyethy)-5,5-dimethylhydantoin]
5 | −1.00 | OCCOCCOCCO [triethylene glycol]

Row | Structure (SMILES) | Partition Coefficient (log P1-octanol/water)
6 | O [water] | −0.825

Same assay, conditions: equilibrium mixture of 1-octanol and water

Row | Structure (SMILES) | Partition Coefficient (log P1-octanol/water)
7 | O=C1CCCN1 [2-pyrrolidone] | −0.10
8 | CCC(CO)(CO)CO [ethylhydroxy propanediol] | −0.50
